According to patent US9314468B2, “Chemokine receptor modulators” (Altiris Therapeutics, Inc., priority 2008, dated 2016):
Blank lines part the entries; values can stand above or below the compound they belong to.

Tests used:
Format in all cases: cell-based
CXCR4 [1] = target: T1, CXCR4 (Homo sapiens (Human), UniProt P61073); experiment: Functional calcium mobilization assay (SDF-1α induced); settings: for IC50: read-out: Ca Flux IC50; for inhibition at 1 µM: CCRF-CEM, read-out: % inhibition at 1 μM
T1 sequence (P61073 whole entry): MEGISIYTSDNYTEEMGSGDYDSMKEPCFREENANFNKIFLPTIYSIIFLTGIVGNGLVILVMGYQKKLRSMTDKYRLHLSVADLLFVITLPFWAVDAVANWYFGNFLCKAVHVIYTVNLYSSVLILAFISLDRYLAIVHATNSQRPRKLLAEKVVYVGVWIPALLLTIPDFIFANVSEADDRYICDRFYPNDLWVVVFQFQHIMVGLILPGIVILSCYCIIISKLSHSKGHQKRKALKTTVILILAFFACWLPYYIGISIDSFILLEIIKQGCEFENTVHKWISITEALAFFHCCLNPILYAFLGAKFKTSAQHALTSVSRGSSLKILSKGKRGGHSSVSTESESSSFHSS
Protocol: Functional modulation of CXCR4 was determined by calcium mobilization assay using leukemic lymphoid CEM cells, which naturally express high levels of CXCR4. Generally, the assay is carried out as follows: Cells are grown in vitro to confluency. On the day of the assay, cells are removed from the incubator, culture medium removed and replaced with a calcium sensitive dye (Calcium3 assay kit; Molecular Devices, Sunnyvale, Calif.). The cells are allowed to dye load for 45-60 min at 37° C. in the cell culture incubator and then allowed to equilibrate to room temperature for no more than 15 min before assay.
Compound plates were generated containing up to 3% dimethyl sulfoxide in media kept at room temperature. Test compounds were added to the cells at a 1:3 dilution, and calcium mobilization was measured using a Flex Station fluorescence imager (Molecular Devices). This first read was used to determine direct agonist activation of the CXCR4 receptor by the test compounds. […] Full dose response curves were generated daily for SDF-1a to calculate IC50 concentrations. The IC50 values are reported. In cases, where one was not determined, a percent inhibition at the 1 μM concentration was extrapolated.
Functional calcium mobilization assay was conducted as described in Example 27.

[2] = Cytotoxicity assay, 6 days; settings: human, CCRF-CEM cells
Protocol: Cytotoxicity of the compounds was assessed by the following assay. CCRF-CEM cells in media (RPMI 1640, 15% FBS, Pen/Strep., 1% non-essential amino acids) are incubated with various concentrations of test compound for 6 days undisturbed. Cell number relative to no compound controls is determined using either Serotec's “Alamar blue” per manufacturers protocol or Promega's “Cell Titer 96 Aqueous One Solution Cell Proliferation Assay” kit per manufacturers protocol. The number cells not surviving after test compound administration is determined for each concentration tested and the EC50 (concentration of compound in which 50% of the cells survive) is determined

hERG potassium channel = hERG potassium channel (Homo sapiens (Human), UniProt Q12809); experiment: hERG potassium channel current, automatic patch clamp; settings: human, mammalian cells expressing hERG potassium channel
hERG potassium channel, sequence (Q12809 whole entry): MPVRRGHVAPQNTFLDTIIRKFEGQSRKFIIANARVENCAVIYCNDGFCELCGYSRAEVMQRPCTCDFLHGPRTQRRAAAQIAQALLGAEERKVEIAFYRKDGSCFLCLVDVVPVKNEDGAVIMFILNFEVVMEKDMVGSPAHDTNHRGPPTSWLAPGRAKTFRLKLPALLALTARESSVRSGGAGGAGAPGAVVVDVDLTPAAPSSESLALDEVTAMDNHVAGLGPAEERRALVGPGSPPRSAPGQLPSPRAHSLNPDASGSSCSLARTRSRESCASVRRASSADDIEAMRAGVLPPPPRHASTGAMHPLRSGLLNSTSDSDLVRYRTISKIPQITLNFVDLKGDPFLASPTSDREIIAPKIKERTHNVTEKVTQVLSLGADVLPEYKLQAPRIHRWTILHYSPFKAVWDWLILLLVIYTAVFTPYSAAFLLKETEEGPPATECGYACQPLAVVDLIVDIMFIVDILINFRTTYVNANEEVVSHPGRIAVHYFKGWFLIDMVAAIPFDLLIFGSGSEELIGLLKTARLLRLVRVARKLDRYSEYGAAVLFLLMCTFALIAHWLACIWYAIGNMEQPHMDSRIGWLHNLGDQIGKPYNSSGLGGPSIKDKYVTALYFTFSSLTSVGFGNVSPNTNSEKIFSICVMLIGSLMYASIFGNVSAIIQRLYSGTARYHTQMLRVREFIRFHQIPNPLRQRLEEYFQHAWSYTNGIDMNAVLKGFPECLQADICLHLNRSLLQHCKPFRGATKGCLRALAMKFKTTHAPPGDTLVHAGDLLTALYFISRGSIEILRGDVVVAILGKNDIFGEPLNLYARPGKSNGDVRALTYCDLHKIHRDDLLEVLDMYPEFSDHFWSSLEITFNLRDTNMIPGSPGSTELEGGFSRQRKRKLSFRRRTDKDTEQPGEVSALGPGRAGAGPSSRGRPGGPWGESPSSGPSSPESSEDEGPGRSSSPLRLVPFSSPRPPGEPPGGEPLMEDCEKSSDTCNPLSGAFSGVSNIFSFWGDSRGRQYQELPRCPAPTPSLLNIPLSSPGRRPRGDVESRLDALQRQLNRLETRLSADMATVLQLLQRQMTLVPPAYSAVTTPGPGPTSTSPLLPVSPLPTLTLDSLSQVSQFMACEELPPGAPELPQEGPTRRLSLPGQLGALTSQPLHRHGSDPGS
Protocol: The in vitro effects of the selected compounds on the hERG (human ether-á-go-go-related gene) potassium channel current (a surrogate for IKr, the rapidly activating, delayed rectifier cardiac potassium current) expressed in mammalian cells were evaluated at room temperature using the PatchXpress 7000A (Molecular Devices), an automatic parallel patch clamp system.

CXCR4 [3] = target: T1, CXCR4; experiment: Cellular impedance change induced by SDF-1a (cellular dielectric spectroscopy); settings: HeLa cells, endogenous CXCR4, EC50 concentration of SDF-1a, 30 minutes; read-out: Antagonist IC50
Protocol: This assay measures the change in impedance that occurs when cells are stimulated with SDF-1a. Changes in shape and cytoskeleton result in a change of impedance that is dependent on the activation of the CXCR4 receptor. This assay is contracted to MDS Pharma Services and performed as described in http://discovery.mdsps.com/Catalog/Services/Screening/CellKey/AssayDetails.aspx?id=7 (Assay 930070). Briefly, human HeLa cells expressing endogenous CXCR4 are grown in vitro and receptor activation in live cells is measured using cellular dielectric spectroscopy (CDS).

[4] = CEM cells, SDF-1α challenge at EC80-EC90

IC50 (CXCR4 [1]; Table 9, selected compounds): 126 nM
SMILES: NCCCCN(Cc1nccc2c3ccccc3n(CC(=O)NC3CCNCC3)c12)C1CCCc2cccnc21 (centres unmarked) [drawing 821]
EC50 at 6 days [2]: 30000 nM
inhibition at 5 min, 10 µM (hERG potassium channel): 16%

IC50 (CXCR4 [3]): 9.3 nM
SMILES: c1cnc2c(c1)CCCC2N(CCCN1CCNCC1)Cc1nccc2c3ccccc3n(CCN3CCOCC3)c12 (centres unmarked) [drawing 811]

IC50 (CXCR4 [3]): 11 nM
SMILES: CN1CCN(C(=O)Cn2c3ccccc3c3ccnc(CN(CCCCN)C4CCCc5cccnc54)c32)CC1 (centres unmarked)

IC50 (CXCR4 [1]; Table 9, selected compounds): 30 nM
SMILES: CN1CCN(C(=O)Cn2c3ccccc3c3ccnc(CN(CCCCN)[C@H]4CCCc5cccnc54)c32)CC1 [drawing 823]
EC50 at 6 days [2]: 50000 nM
inhibition at 5 min, 10 µM (hERG potassium channel): 39%

IC50 (CXCR4 [3]): 12 nM
SMILES: NCCCCN(Cc1nccc2c3ccccc3n(CC(=O)N3CCC(O)CC3)c12)C1CCCc2cccnc21 (centres unmarked)

IC50 (CXCR4 [1]; Table 9, selected compounds): 123 nM
SMILES: C[C@@H]1CN(C(=O)Cn2c3ccccc3c3ccnc(CN(CCCCN)[C@H]4CCCc5cccnc54)c32)C[C@H](C)O1 [drawing 826]
EC50 at 6 days [2]: 5300 nM
inhibition at 5 min, 1 µM (hERG potassium channel): 18%

IC50 (CXCR4 [3]): 5.7 nM
SMILES: NCCCCN(Cc1nccc2c3ccccc3n(CCN3CCNCC3)c12)C1CCCc2cccnc21 (centres unmarked)

IC50 (CXCR4 [3]): 15 nM
SMILES: O=C(Cn1c2ccccc2c2ccnc(CN(CCCN3CCNCC3)C3CCCc4cccnc43)c21)N1CCOCC1 (centres unmarked)

IC50 (CXCR4 [1]; Table 9, selected compounds): 7 nM
SMILES: NCCCCN(Cc1nccc2c3ccccc3n(CCCN)c12)[C@H]1CCCc2cccnc21 [drawing 827]
EC50 at 6 days [2]: 6400 nM
inhibition at 5 min, 10 µM (hERG potassium channel): 46%

IC50 (CXCR4 [3]): 12 nM
SMILES: NCCCCN(Cc1nccc2c3ccccc3n(CC(=O)NC3CCNCC3)c12)C1CCCc2cccnc21 (centres unmarked) [drawing 814]

IC50 (CXCR4 [1]; Table 9, selected compounds): 37 nM
SMILES: CC(C)(C)OC(=O)Cn1c2ccccc2c2ccnc(CN(CCCN3CCNCC3)[C@H]3CCCc4cccnc43)c21 [drawing 825]
EC50 at 6 days [2]: 600 nM
inhibition at 5 min, 1 µM (hERG potassium channel): 26%

IC50 (CXCR4 [1]; Table 9, selected compounds): 44 nM
SMILES: O=C(Cn1c2ccccc2c2ccnc(CN(CCCN3CCNCC3)[C@H]3CCCc4cccnc43)c21)C1CCOCC1
EC50 at 6 days [2]: 30000 nM
inhibition at 5 min, 10 µM (hERG potassium channel): 25%

IC50 (CXCR4 [1]; Table 9, selected compounds): 12 nM
SMILES: NCCCCN(Cc1nccc2c3ccccc3n(CC(=O)N3CCOCC3)c12)[C@H]1CCCc2cccnc21 [drawing 819]
EC50 at 6 days [2]: 30000 nM
inhibition at 5 min, 10 µM (hERG potassium channel): 42%

IC50 (CXCR4 [3]): 5.8 nM
SMILES: NCCCCN(Cc1nccc2c3ccccc3n(CC(N)=O)c12)C1CCCc2cccnc21 (centres unmarked)

IC50 (CXCR4 [3]): 5.5 nM
SMILES: C#CCn1c2ccccc2c2ccnc(CN(CCCCN)C3CCCc4cccnc43)c21 (centres unmarked)

IC50 (CXCR4 [3]): 7.3 nM
SMILES: NCCCCN(Cc1nccc2c3ccccc3n(CCCN)c12)C1CCCc2cccnc21 (centres unmarked)

IC50 (CXCR4 [3]): 8.3 nM
SMILES: NCCCCN(Cc1nccc2c3ccccc3n(CCCN3CCNCC3)c12)C1CCCc2cccnc21 (centres unmarked)

IC50 (CXCR4 [3]): 9.9 nM
SMILES: C[C@@H]1CN(C(=O)Cn2c3ccccc3c3ccnc(CN(CCCCN)C4CCCc5cccnc54)c32)C[C@H](C)O1 (some centres unmarked)

inhibition at 1 µM (CXCR4 [1]): 0%
SMILES: NCc1ccc(CN(Cc2nccc3c2[nH]c2ccccc23)[C@H]2CCCc3cccnc32)cc1

IC50 (CXCR4 [1]; [4]): 3200 nM
SMILES: Cn1c(CN(CCCCN)C2CCCc3cccnc32)nnc1-c1ccccc1 (centres unmarked)

inhibition at 1 µM (CXCR4 [1]): 0%
SMILES: c1cnc2c(c1)CCCC2N(CCNC1=NCCN1)Cc1nccc2c1[nH]c1ccccc12 (centres unmarked)

IC50 (CXCR4 [1]; [4]): 63 nM
SMILES: NCCCCN(Cc1nccc2c3ccccc3n(CCN3CCNCC3)c12)[C@H]1CCCc2cccnc21 [drawing 754]

IC50 (CXCR4 [1]; [4]): 15 nM
SMILES: NCCCCN(Cc1nccc2c3ccccc3n(CCCN3CCNCC3)c12)[C@H]1CCCc2cccnc21 [drawing 723]

SMILES: NCCCCN(Cc1nccc2c1[nH]c1ccccc12)C1CCCc2cccnc21 (centres unmarked) [drawing 654]
IC50 (CXCR4 [1]; [4]): 142 nM

inhibition at 1 µM (CXCR4 [1]): 45%
SMILES: NCCCCN(Cc1cn(Cc2ccccc2)nn1)C1CCCc2cccnc21 (centres unmarked)

IC50 (CXCR4 [1]; [4]): 405 nM
SMILES: O=C(Cn1c2ccccc2c2ccnc(CN(CCCN3CCNCC3)[C@H]3CCCc4cccnc43)c21)N1CCCCC1

IC50 (CXCR4 [1]; [4]): 11 nM
SMILES: NCCCCN(Cc1nccc2c3ccccc3n(CCO)c12)[C@H]1CCCc2cccnc21

IC50 (CXCR4 [1]; [4]): 9 nM
SMILES: NC(=O)Cn1c2ccccc2c2ccnc(CN(CCCN3CCNCC3)[C@H]3CCCc4cccnc43)c21

inhibition at 1 µM (CXCR4 [1]): 6%
SMILES: c1cnc2c(c1)CCCC2N(CCCNC1=NCCN1)Cc1nccc2c1[nH]c1ccccc12 (centres unmarked)

inhibition at 1 µM (CXCR4 [1]): 0%
SMILES: c1cnc2c(c1)CCC[C@@H]2NCc1nccc2c1[nH]c1ccccc12

inhibition at 1 µM (CXCR4 [1]): 39%
SMILES: c1cnc2c(c1)CCC[C@@H]2NCc1cc2c(cn1)[nH]c1ccccc12

IC50 (CXCR4 [1]; [4]): 3370 nM
SMILES: CN(Cc1nccc2c3ccccc3n(CCCCN)c12)[C@H]1CCCc2cccnc21

IC50 (CXCR4 [1]; [4]): 30 nM
SMILES: NCCCCN(Cc1nccc2c1[nH]c1ccccc12)[C@H]1CCCc2cccnc21

IC50 (CXCR4 [3]): 26 nM
SMILES: O=C(O)Cn1c2ccccc2c2ccnc(CN(CCCN3CCNCC3)C3CCCc4cccnc43)c21 (centres unmarked)

IC50 (CXCR4 [1]; [4]): 1440 nM
SMILES: NC(=O)CCCN(Cc1nccc2c1[nH]c1ccccc12)[C@H]1CCCc2cccnc21

IC50 (CXCR4 [1]; [4]): 729 nM
SMILES: c1cnc2c(c1)CCCC2N(CCCCNCC1CC1)Cc1nccc2c1[nH]c1ccccc12 (centres unmarked)

IC50 (CXCR4 [3]): 7.7 nM
SMILES: NCCCCN(Cc1nccc2c3ccccc3n(CCN3CCOCC3)c12)C1CCCc2cccnc21 (centres unmarked)

IC50 (CXCR4 [1]; [4]): 864 nM
SMILES: NCCCCN(Cc1cc2c3ccccc3n(CC(=O)O)c2cn1)[C@H]1CCCc2cccnc21

inhibition at 1 µM (CXCR4 [1]): 49%
SMILES: c1cnc2c(c1)CCCC2N(CCCCN1CCOCC1)Cc1nccc2c1[nH]c1ccccc12 (centres unmarked)

inhibition at 1 µM (CXCR4 [1]): 0%
SMILES: NCCCCN(Cc1cc2c3ccccc3n(CC(=O)N3CCOCC3)c2cn1)[C@H]1CCCc2cccnc21

IC50 (CXCR4 [1]; [4]): 78 nM
SMILES: NCCCCN(Cc1nccc2c3ccccc3n(CC(=O)N3CCSCC3)c12)[C@H]1CCCc2cccnc21

IC50 (CXCR4 [3]): 5.6 nM
SMILES: NCCCCN(Cc1nccc2c3ccccc3n(CC(=O)N3CCOCC3)c12)C1CCCc2cccnc21 (centres unmarked)

IC50 (CXCR4 [1]; [4]): 30 nM
SMILES: NCCCn1c2ccccc2c2ccnc(CN(CCCN3CCNC(=O)C3)[C@H]3CCCc4cccnc43)c21

IC50 (CXCR4 [1]; [4]): 124 nM
SMILES: O=C(Cn1c2ccccc2c2ccnc(CN(CCCC3CCNCC3)[C@H]3CCCc4cccnc43)c21)N1CCOCC1

IC50 (CXCR4 [1]; Table 9, selected compounds): 55 nM
SMILES: NCCCCN(Cc1nccc2c3ccccc3n(CCN3CCNCC3)c12)[C@H]1CCCc2cccnc21 [drawing 829]
EC50 at 6 days [2]: > 10000 nM
inhibition at 5 min, 10 µM (hERG potassium channel): 45%

IC50 (CXCR4 [1]; [4]): 135 nM
SMILES: O=C(O)Cn1c2ccccc2c2ccnc(CN(CCCN3CCNCC3)[C@H]3CCCc4cccnc43)c21 [drawing 753]

IC50 (CXCR4 [1]; [4]): 329 nM
SMILES: CN(Cc1nccc2c3ccccc3n(CCN3C(=O)c4ccccc4C3=O)c12)[C@H]1CCCc2cccnc21

IC50 (CXCR4 [1]; [4]): 110 nM
SMILES: NCCCCN(Cc1nccc2c3ccccc3n(CC(=O)NC3CCNCC3)c12)[C@H]1CCCc2cccnc21

IC50 (CXCR4 [1]; [4]): 87 nM
SMILES: c1cnc2c(c1)CCC[C@@H]2N(CCCN1CCNCC1)Cc1nccc2c1[nH]c1ccccc12

IC50 (CXCR4 [1]; [4]): 3600 nM
SMILES: c1cnc2c(c1)CCC[C@@H]2N(Cc1nccc2c1[nH]c1ccccc12)CC1CCCNC1 (some centres unmarked)

IC50 (CXCR4 [1]; Table 9, selected compounds): 113 nM
SMILES: O=C(O)Cn1c2ccccc2c2ccnc(CN(CCCN3CCNCC3)[C@H]3CCCc4cccnc43)c21 [drawing 828]
EC50 at 6 days [2]: > 10000 nM
inhibition at 5 min, 10 µM (hERG potassium channel): 20%

IC50 (CXCR4 [1]; [4]): 21 nM
SMILES: NCCCCN(Cc1nccc2c3ccccc3n(CCCN)c12)[C@H]1CCCc2cccnc21 [drawing 748]

IC50 (CXCR4 [1]; [4]): 57 nM
SMILES: Cn1c2ccccc2c2cc(CN(CCCCN)[C@H]3CCCc4cccnc43)ncc21

inhibition at 1 µM (CXCR4 [1]): 5%
SMILES: CS(=O)(=O)N1CCC(CCN(Cc2nccc3c2[nH]c2ccccc23)C2CCCc3cccnc32)CC1 (centres unmarked)

inhibition at 1 µM (CXCR4 [1]): 4%
SMILES: CCN(CC)CCCCN(Cc1nccc2c1[nH]c1ccccc12)C1CCCc2cccnc21 (centres unmarked)

inhibition at 1 µM (CXCR4 [1]): 0%
SMILES: O=C1c2ccccc2C(=O)N1CCCn1c2ccccc2c2ccnc(CN[C@H]3CCCc4cccnc43)c21
